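Values below derive from 48-hour exposures of cells grown in 96-well plates, with endpoints linearly interpolated between the two concentrations bracketing the appropriate inhibition level. GI50: concentration for 50% inhibition of growth. Definition used: TGI = concentration required for complete inhibition of growth.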
Legend:
Test in all cases: NCI-60 cell line screen, 48 h
[1] = test system: 786-0 renal
[2] = test system: A498 renal
[3] = test system: A549 NSCLC
[4] = test system: ACHN renal
[5] = test system: BT-549 breast
[6] = test system: CAKI-1 renal
[7] = test system: CCRF-CEM leukemia
[8] = test system: COLO 205 colon
[9] = test system: DU-145 prostate
[10] = test system: HCC-2998 colon
[11] = test system: HCT-116 colon
[12] = test system: HCT-15 colon
[13] = test system: HL-60(TB) leukemia
[14] = test system: HOP-62 NSCLC
[15] = test system: HOP-92 NSCLC
[16] = test system: HS 578T breast
[17] = test system: HT29 colon
[18] = test system: IGROV1 ovarian
[19] = test system: K-562 leukemia
[20] = test system: KM12 colon
[21] = test system: LOX IMVI melanoma
[22] = test system: M14 melanoma
[23] = test system: MALME-3M melanoma
[24] = test system: MCF7 breast
[25] = test system: MDA-MB-231 breast
[26] = test system: MDA-MB-435
[27] = test system: MOLT-4 leukemia
[28] = test system: NCI-H226 lung
[29] = test system: NCI-H23 lung
[30] = test system: NCI-H460 lung
[31] = test system: NCI-H522 lung
[32] = test system: NCI/ADR-RES ovarian
[33] = test system: OVCAR-3 ovarian
[34] = test system: OVCAR-4 ovarian
[35] = test system: OVCAR-5 ovarian
[36] = test system: OVCAR-8 ovarian
[37] = test system: PC-3 prostate
[38] = test system: RPMI-8226 leukemia
[39] = test system: RXF 393 renal
[40] = test system: SF-268 CNS
[41] = test system: SF-295 CNS
[42] = test system: SF-539 CNS
[43] = test system: SK-MEL-2 melanoma
[44] = test system: SK-MEL-28 melanoma
[45] = test system: SK-MEL-5 melanoma
[46] = test system: SK-OV-3 ovarian
[47] = test system: SN12C renal
[48] = test system: SNB-19 CNS
[49] = test system: SNB-75 CNS
[50] = test system: SR leukemia
[51] = test system: SW-620 colon
[52] = test system: T-47D breast
[53] = test system: TK-10 renal
[54] = test system: U251 CNS
[55] = test system: UACC-257 melanoma
[56] = test system: UACC-62 melanoma
[57] = test system: UO-31 renal

Work on `CCCN(Cc1ccc(F)cc1)c1ccc(CO)c(Cl)c1` yielded a GI50 [1] of 4.77 µM, a TGI [1] of 19.7 µM and a GI50 [2] of 0.0236 µM. It also gave a TGI [2] of 0.102 µM, a GI50 [3] of 2.12 µM and a TGI [3] of 16.5 µM. It also gave a GI50 [4] of 9.98 µM, a TGI [4] of 22.8 µM and a GI50 [5] of 11.7 µM. For the same compound, the TGI [5] was 25.6 µM, the GI50 [6] was 1.47 µM and the TGI [6] was 13.6 µM. It also gave a GI50 [7] of 12.2 µM, a TGI [7] of 30.5 µM and a GI50 [8] of 3.96 µM. The TGI [8] was 13.6 µM, the GI50 [9] was 13.3 µM and the TGI [9] was 26.5 µM. For the same compound, the GI50 [10] was 8.9 µM, the TGI [10] was 22.5 µM and the GI50 [11] was 0.138 µM. The TGI [11] was 3.86 µM, the GI50 [12] was 5.35 µM and the TGI [12] was 19.8 µM. It also gave a GI50 [13] of 3.27 µM, a TGI [13] of 19.2 µM and a GI50 [14] of 2.4 µM. The TGI [14] was 17.1 µM, the GI50 [15] was 2.66 µM and the TGI [15] was 14.2 µM. For the same compound, the GI50 [16] was 14.8 µM, the TGI [16] was 37.6 µM and the GI50 [17] was 4.78 µM. The TGI [17] was 16.4 µM, the GI50 [18] was 0.0897 µM and the TGI [18] was 0.39 µM. The GI50 [19] was 2.22 µM, the TGI [19] was 15.2 µM and the GI50 [20] was 13 µM. It also gave a TGI [20] of 27.3 µM, a GI50 [21] of 9.49 µM and a TGI [21] of 21.9 µM. It also gave a GI50 [22] of 14.3 µM, a TGI [22] of 32.9 µM and a GI50 [23] of 14.1 µM. The TGI [23] was 28.6 µM, the GI50 [24] was 0.375 µM and the TGI [24] was 12.9 µM. The GI50 [25] was 13 µM, the TGI [25] was 27.3 µM and the GI50 [26] was 14.6 µM. For the same compound, the TGI [26] was 29 µM, the GI50 [27] was 11.2 µM and the TGI [27] was 30.1 µM. For the same compound, the GI50 [28] was 0.0365 µM, the TGI [28] was 0.144 µM and the GI50 [29] was 4.24 µM. It also gave a TGI [29] of 20.2 µM, a GI50 [30] of 0.359 µM and a TGI [30] of 11.5 µM. The GI50 [31] was 9.5 µM, the TGI [31] was 22.6 µM and the GI50 [32] was 9.52 µM. It also gave a TGI [32] of 22.9 µM, a GI50 [33] of 0.662 µM and a TGI [33] of 4.02 µM. For the same compound, the GI50 [34] was 0.4 µM, the TGI [34] was 7.9 µM and the GI50 [35] was 0.168 µM. It also gave a TGI [35] of 0.528 µM, a GI50 [36] of 11.5 µM and a TGI [36] of 25.8 µM. It also gave a GI50 [37] of 11.6 µM, a TGI [37] of 24.6 µM and a GI50 [38] of 1.91 µM. It also gave a TGI [38] of 14 µM, a GI50 [39] of 4.12 µM and a TGI [39] of 16.8 µM. For the same compound, the GI50 [40] was 16.1 µM, the TGI [40] was 32.1 µM and the GI50 [41] was 1.41 µM. The TGI [41] was 9.65 µM, the GI50 [42] was 15.3 µM and the TGI [42] was 29 µM. For the same compound, the GI50 [43] was 2.99 µM, the TGI [43] was 13.3 µM and the GI50 [44] was 13.7 µM. For the same compound, the TGI [44] was 27 µM, the GI50 [45] was 6.51 µM and the TGI [45] was 19.8 µM. It also gave a GI50 [46] of 6.31 µM, a TGI [46] of 19 µM and a GI50 [47] of 9.42 µM. It also gave a TGI [47] of 23.1 µM, a GI50 [48] of 12.7 µM and a TGI [48] of 26.8 µM. The GI50 [49] was 10.6 µM, the TGI [49] was 22.7 µM and the GI50 [50] was 13.6 µM. For the same compound, the TGI [50] was 35.4 µM, the GI50 [51] was 1.07 µM and the TGI [51] was 15.6 µM. The GI50 [52] was 0.119 µM, the TGI [52] was 0.733 µM and the GI50 [53] was 0.0777 µM. It also gave a TGI [53] of 0.357 µM, a GI50 [54] of 2.48 µM and a TGI [54] of 16.2 µM. It also gave a GI50 [55] of 0.207 µM, a TGI [55] of 0.776 µM and a GI50 [56] of 0.167 µM. The TGI [56] was 0.907 µM, the GI50 [57] was 2.65 µM and the TGI [57] was 13.9 µM.

In the case of `COc1cc2c(/C=C3/C(=O)Nc4ccc(Cl)cc43)c(Cl)n(Cc3ccccc3)c2cc1C`, the TGI [1] is reported as 6.41 µM, the TGI [2] is reported as 5.72 µM and the TGI [3] is reported as over 100 µM. The TGI [4] was 6.8 µM, the TGI [5] was 22.6 µM and the TGI [6] was 10.6 µM. The TGI [7] was 6.78 µM, the TGI [8] was 6.36 µM and the TGI [9] was 16.1 µM. For the same compound, the TGI [11] was over 100 µM, the TGI [12] was 17.8 µM and the TGI [13] was 17.4 µM. For the same compound, the TGI [15] was 25.9 µM, the TGI [16] was over 100 µM and the TGI [17] was over 100 µM. For the same compound, the TGI [18] was 13.4 µM, the TGI [19] was over 100 µM and the TGI [20] was 5.64 µM. For the same compound, the TGI [21] was over 100 µM, the TGI [22] was 18.2 µM and the TGI [23] was 4.38 µM. The TGI [24] was over 100 µM, the TGI [25] was 6.04 µM and the TGI [26] was 6.21 µM. It also gave a TGI [27] of 5.02 µM, a TGI [28] of 9.61 µM and a TGI [29] of 7.46 µM. The TGI [30] was over 100 µM, the TGI [32] was over 100 µM and the TGI [33] was 4.83 µM. It also gave a TGI [35] of 7.06 µM, a TGI [37] of 22.2 µM and a TGI [38] of 6.9 µM. It also gave a TGI [39] of 5.18 µM, a TGI [40] of over 100 µM and a TGI [41] of 7.19 µM. For the same compound, the TGI [42] was 7.69 µM, the TGI [43] was 34.9 µM and the TGI [44] was 9.46 µM. The TGI [45] was 13.7 µM, the TGI [46] was 4.41 µM and the TGI [47] was 5.24 µM. For the same compound, the TGI [48] was 8.98 µM, the TGI [49] was 4.61 µM and the TGI [50] was 5.9 µM. For the same compound, the TGI [51] was over 100 µM, the TGI [52] was 13.9 µM and the TGI [53] was 3.76 µM. The TGI [55] was over 100 µM, the TGI [56] was 10.3 µM and the TGI [57] was 6.78 µM.
